In the NIST ThermoML archive (doi:10.1016/j.jct.2016.08.010):

Assay: xn = mol fraction of the nth substance listed
Settings: 100 kPa, Liquid; for speed of sound: Frequency=3 MHz, Sing-around technique in a fixed-path interferometer; for mass density: Vibrating tube method

CCn1cc[n+](C)c1.F[B-](F)(F)F [1-ethyl-3-methylimidazolium tetrafluoroborate] + CCCCn1cc[n+](C)c1.F[B-](F)(F)F
Settings	mass density, 293.15 K [kg/m3]	mass density, 298.15 K [kg/m3]	mass density, 303.15 K [kg/m3]	mass density, 308.15 K [kg/m3]	speed of sound, 293.15 K [m/s]	speed of sound, 298.15 K [m/s]	speed of sound, 303.15 K [m/s]	speed of sound, 308.15 K [m/s]
x2 = 0	1283.9	1279.9	1276.3	1272.1	1631.1	1619.2	1607.4	1596.2
x2 = 0.0728	1274.4	1270.8	1267.5	1263.8	1628.1	1616	1604	1592.6
x2 = 0.1143	1269.1	1265.7	1262.6	1259.1	1626.4	1614.2	1602.2	1590.6
x2 = 0.148	1264.9	1261.6	1258.7	1255.3	1625	1612.7	1600.7	1589.1
x2 = 0.1737	1261.8	1258.6	1255.7	1252.4	1624	1611.6	1599.5	1587.9
x2 = 0.2204	1256.4	1253.2	1250.5	1247.4	1622	1609.6	1597.5	1585.7
x2 = 0.2684	1251.1	1248	1245.3	1242.3	1620	1607.5	1595.3	1583.5
x2 = 0.3155	1246.2	1243.1	1240.5	1237.6	1618	1605.4	1593.3	1581.3
x2 = 0.3619	1241.6	1238.6	1236	1233.2	1616	1603.3	1591.2	1579.1
x2 = 0.4167	1236.6	1233.6	1231.1	1228.3	1613.6	1600.8	1588.7	1576.6
x2 = 0.4759	1231.8	1228.7	1226.1	1223.4	1610.8	1598	1585.9	1573.7
x2 = 0.5282	1227.9	1224.7	1222.2	1219.4	1608.3	1595.5	1583.3	1571.1
x2 = 0.5742	1224.7	1221.5	1218.9	1216.1	1605.9	1593.1	1581	1568.8
x2 = 0.6356	1220.9	1217.6	1214.9	1212.1	1602.7	1589.8	1577.7	1565.6
x2 = 0.6835	1218.1	1214.8	1212.1	1209.1	1600	1587.1	1575.1	1563
x2 = 0.7381	1215.3	1211.8	1209	1206	1596.7	1583.9	1572	1559.8
x2 = 0.7892	1212.8	1209.2	1206.3	1203.2	1593.5	1580.7	1568.8	1556.8
x2 = 0.8364	1210.6	1206.9	1203.9	1200.6	1590.4	1577.6	1565.8	1553.8
x2 = 0.8932	1208	1204.2	1201	1197.6	1586.4	1573.7	1562	1550
